pEC50, pKd: −log10 of the molar value.
Tests used:
GLP-1R [1] = biological target: T1, GLP-1R (Homo sapiens, UniProt P43220); assay: GRK2 recruitment to the GLP-1R, NanoBRET; type: cell-based; parameters: expressed in transfected cells; host or cells: freestyle HEK cells
Method: After 48 h, transfected cells were incubated in phosphate-buffered saline (PBS) containing 0.1% (wt/vol) bovine casein and varying concentrations of the ligands. […]
The potency (EC50) and efficacy (% Top) for ligands to induce GLP-1R Internalization were
determined using diffusion-enhanced resonance energy transfer.
relative efficacy for NanoBRET assays. SPR data were analyzed using T200 evaluation software (Cytiva). All data are presented as geometric means with SEM and n values
according to established practices. ND, not determined. NA, not applicable.
Target sequence in this assay (P43220 24-463): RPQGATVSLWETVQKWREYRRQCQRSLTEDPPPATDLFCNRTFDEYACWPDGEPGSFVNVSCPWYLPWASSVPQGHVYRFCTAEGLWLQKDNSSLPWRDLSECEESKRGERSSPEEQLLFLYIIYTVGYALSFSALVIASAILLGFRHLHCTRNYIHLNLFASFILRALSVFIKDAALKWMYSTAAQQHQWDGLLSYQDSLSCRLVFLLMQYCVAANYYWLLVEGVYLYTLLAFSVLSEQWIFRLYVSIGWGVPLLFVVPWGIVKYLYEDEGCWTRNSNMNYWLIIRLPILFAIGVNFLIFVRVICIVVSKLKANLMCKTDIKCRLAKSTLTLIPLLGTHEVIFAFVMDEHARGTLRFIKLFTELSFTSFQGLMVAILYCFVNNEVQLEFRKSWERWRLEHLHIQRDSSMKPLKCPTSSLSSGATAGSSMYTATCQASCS
Target sequence in this assay (P25098 whole entry partner): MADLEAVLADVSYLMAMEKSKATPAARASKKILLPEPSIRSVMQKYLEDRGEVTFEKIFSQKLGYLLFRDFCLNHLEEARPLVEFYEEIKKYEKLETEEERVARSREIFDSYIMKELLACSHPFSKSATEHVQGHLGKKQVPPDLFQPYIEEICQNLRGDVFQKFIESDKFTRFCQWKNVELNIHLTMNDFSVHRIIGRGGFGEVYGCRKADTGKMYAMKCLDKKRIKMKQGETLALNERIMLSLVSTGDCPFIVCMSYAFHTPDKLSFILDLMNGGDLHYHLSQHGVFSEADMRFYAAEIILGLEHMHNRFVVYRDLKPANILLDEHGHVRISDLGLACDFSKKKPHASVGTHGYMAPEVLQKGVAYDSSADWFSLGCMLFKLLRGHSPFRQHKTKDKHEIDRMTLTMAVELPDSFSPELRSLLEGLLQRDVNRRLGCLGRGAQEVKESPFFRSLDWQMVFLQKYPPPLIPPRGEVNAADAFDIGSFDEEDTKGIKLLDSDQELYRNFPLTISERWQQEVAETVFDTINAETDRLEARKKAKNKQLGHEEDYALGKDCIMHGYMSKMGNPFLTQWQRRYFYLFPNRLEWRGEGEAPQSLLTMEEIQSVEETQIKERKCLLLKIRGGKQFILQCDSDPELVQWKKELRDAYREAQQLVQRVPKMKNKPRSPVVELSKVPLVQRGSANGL

[2] = biological target: T2, ECD of human GIPR (amino acids 26 to 138) (Homo sapiens, UniProt P48546); assay: GIPR extracellular domain binding by surface plasmon resonance; conditions: equilibrium affinity, immobilized GIPR ectodomain, Biacore T200, HBS-EP pH 7.6; (SEM, n); read-out: GIPR SPR KD
T2 construct: human GIPR (amino acids 26 to 138); 6His; made in house; host or cells: CHO cells
T2 sequence (P48546 26-138): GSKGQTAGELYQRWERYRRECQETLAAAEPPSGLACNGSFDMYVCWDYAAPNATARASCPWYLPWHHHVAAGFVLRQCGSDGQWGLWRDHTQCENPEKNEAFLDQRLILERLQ
Source text: DNA encoding each protein was transfected into CHO cells for expression. After expression, the proteins were purified by affinity chromatography (HIS-Trap Ni, Cytiva) followed by size exclusion chromatography using a HiLoad 26/600 Superdex 75pg column (Cytiva) with PBS buffer. […] Surface plasmon resonance measurements were made using a Biacore T200 (Cytiva) and analyzed using T200 Evaluation Software Version 3.1. Receptor ectodomain proteins were covalently immobilized (∼250 resonance units) on Sensor Chip CM4 BR100534 using the Amine coupling Immobilization Wizard in the Biacore T200 Control Software Version 2.0.2. […]
(§1) and efficacy (% Top) of ligands to induce Gα s -GTPγS binding and cAMP accumulation in HEK293 cells expressing GIPR were determined. The equilibrium affinity (KD) of ligands for the immobilized ectodomain of the GIPR were quantified by surface plasmon resonance. […]
(§2) Functional potency (EC50) and efficacy (% Top) of ligands to induce Gα s-GTPγS binding and cAMP accumulation in HEK293 cells expressing GLP-1R were determined. The equilibrium affinity (KD) of ligands for the immobilized ectodomain of the GLP-1R were quantified by surface plasmon resonance. […]
(§3) recruitment to the GLP-1R were determined using the NanoBRET approach. The potency (EC50) and efficacy (% Top) for ligands to induce GLP-1R Internalization were determined using diffusion-enhanced resonance energy transfer. […]

GLP-1R [3] = biological target: T1, GLP-1R; assay: Ligand-induced GLP-1R internalization, SNAP-GLP-1R HEK293 cells; type: cell-based
Target sequence in this assay (P43220 24-463): as the sequence (P43220 24-463) above

GLP-1R [4] = biological target: T1, GLP-1R; assay: β-arrestin 1 recruitment to the GLP-1R, NanoBRET; type: cell-based; parameters: expressed in transfected cells
Method: Functional potency (EC50) […]
as §1, with “resonance. Middle Panel: The affinity (Ki) of ligands for the GLP-1R was” for “resonance.”
as §2, §3
Target sequence in this assay (P43220 24-463): as above
Target sequence in this assay (P49407 whole entry partner): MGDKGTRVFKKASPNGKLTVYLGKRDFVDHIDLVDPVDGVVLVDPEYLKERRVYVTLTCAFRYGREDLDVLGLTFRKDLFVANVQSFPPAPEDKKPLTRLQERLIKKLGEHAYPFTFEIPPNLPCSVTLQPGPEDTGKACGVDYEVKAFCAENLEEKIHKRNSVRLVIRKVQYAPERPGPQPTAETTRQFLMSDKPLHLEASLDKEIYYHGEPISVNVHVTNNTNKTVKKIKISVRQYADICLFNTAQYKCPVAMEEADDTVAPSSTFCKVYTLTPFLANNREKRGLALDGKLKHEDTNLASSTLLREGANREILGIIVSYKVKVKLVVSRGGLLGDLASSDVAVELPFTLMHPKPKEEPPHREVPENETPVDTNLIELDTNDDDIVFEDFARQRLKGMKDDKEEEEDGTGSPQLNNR
relative efficacy for NanoBRET assays. SPR data were analyzed using T200 evaluation software (Cytiva). All data are presented as geometric means with SEM and n values according to established practices. ND, not determined. NA, not applicable.

[5] = biological target: T3, ECD of human GLP-1R (amino acids 24 to 145) (Homo sapiens, UniProt P43220); assay: GLP-1R extracellular domain binding by surface plasmon resonance
T3 construct: GLP-1R (amino acids 24 to 145); 6His; made in house; host or cells: CHO cells
Source text: DNA encoding each protein was transfected into CHO cells for expression. After expression, the proteins were purified by affinity chromatography (HIS-Trap Ni, Cytiva) followed by size exclusion chromatography using a HiLoad 26/600 Superdex 75pg column (Cytiva) with PBS buffer. […] Surface plasmon resonance measurements were made using a Biacore T200 (Cytiva) and analyzed using T200 Evaluation Software Version 3.1. Receptor ectodomain proteins were covalently immobilized (∼250 resonance units) on Sensor Chip CM4 BR100534 using the Amine coupling Immobilization Wizard in the Biacore T200 Control Software Version 2.0.2. Running buffer was HBS-EP (10 mM Hepes, 150 mM NaCl, 3 mM EDTA, 0.05% P20 [pH 7.6]; Teknova). Concentration series for each sample were made by serial dilution in running buffer. The samples were injected for 150 sec at a 30-µL/min flow rate, followed by 300 sec of dissociation. The surface was regenerated between samples with 10 mM glycine (pH 1.7).
Fig. S10. Receptor extracellular domain (ECD) binding affinity of peptides. Purified GIPR (left column) and GLP-1R (right column) extracellular domains were immobilized to biosensor […]
mM). […]
as §1, §2, §3
relative efficacy for NanoBRET assays. SPR data were analyzed using T200 evaluation software (Cytiva). […] ND, not determined. […]

GLP-1R [6] = biological target: T1, GLP-1R; assay: GLP-1R low density cAMP accumulation in HEK293 cells; type: cell-based; parameters: expressed in transfected cells; host or cells: HEK293
Method: Fig. 4. […] (B) Ligand-induced GTPγS binding of Gαs was performed using the GIPR-expressing membranes. […] (C) Agonist-stimulated cAMP production was measured in human GIPR expressing HEK293 cells. […] (E) Ligand-induced GTPγS binding of Gαs was performed using the GLP-1R-expressing membranes. […] (F) Agonist-stimulated cAMP production was measured in human GLP-1R-expressing HEK293 cells. […] Data presented are representative of n ≥ 3 independent experiments. Summarized data are shown in SI Appendix, Table 2. log M; log Molar.
We note that the albumin-binding propensity of fatty acid-modified peptides can confound a pharmacological comparison of molecules, given the common use of albumin and serum as nonspecific blocking agents in biological assays. Therefore, to obviate this, entirely albumin-free assays supplemented with bovine casein or bacitracin were used to prevent nonspecific binding ([10]). […]
Middle Panel: The affinity (Ki) of ligands for the GLP-1R was […]
as §2
Target sequence in this assay (P43220 24-463): as the sequence (P43220 24-463) above
SPR data were analyzed using T200 evaluation software (Cytiva). All data are presented as geometric means with SEM and n values according to established practices. ND, not determined. NA, not applicable.

T3 sequence (P43220 24-145): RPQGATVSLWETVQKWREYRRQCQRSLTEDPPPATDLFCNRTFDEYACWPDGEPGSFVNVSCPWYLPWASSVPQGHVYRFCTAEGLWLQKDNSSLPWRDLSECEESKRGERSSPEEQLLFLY

Structure (SMILES): CC[C@H](C)[C@H](NC(=O)[C@H](CC(C)C)NC(=O)[C@H](Cc1c[nH]c2ccccc12)NC(=O)[C@H](CCC(N)=O)NC(=O)[C@@H](NC(=O)[C@H](Cc1ccccc1)NC(=O)[C@H](C)NC(=O)[C@H](CCCCN)NC(=O)[C@H](CCC(N)=O)NC(=O)[C@H](C)NC(=O)[C@@H](NC(=O)[C@H](CCCCN)NC(=O)[C@H](CC(=O)O)NC(=O)[C@H](CC(C)C)NC(=O)C(C)(C)NC(=O)[C@@H](NC(=O)[C@H](CO)NC(=O)[C@H](Cc1ccc(O)cc1)NC(=O)[C@H](CC(=O)O)NC(=O)[C@H](CO)NC(=O)[C@@H](NC(=O)[C@H](Cc1ccccc1)NC(=O)[C@@H](NC(=O)CNC(=O)[C@H](CCC(=O)O)NC(=O)C(C)(C)NC(=O)[C@@H](N)Cc1ccc(O)cc1)[C@@H](C)O)[C@@H](C)O)[C@@H](C)CC)[C@@H](C)CC)C(C)C)C(=O)N[C@@H](C)C(=O)NCC(=O)NCC(=O)N1CCC[C@H]1C(=O)N[C@@H](CO)C(=O)N[C@@H](CO)C(=O)NCC(=O)N[C@@H](C)C(=O)N1CCC[C@H]1C(=O)N1CCC[C@H]1C(=O)N1CCC[C@H]1C(=O)N[C@@H](CO)C(N)=O [Tzp∆C20]
- pEC50 (GLP-1R [1]; NanoBRET, transfected freestyle HEK cells, PBS with 0.1% casein, geometric mean (SEM, n)): 8.72
- GLP-1R GRK2 Recruitment Top (GLP-1R [1]; efficacy (% Top), relative to maximal GLP-1, (SEM)): 39.4 (3.7) %
- pKd [2]: 5.77
- pEC50 (GLP-1R [3]; diffusion-enhanced resonance energy transfer, SNAP-GLP-1R HEK293 cells, 37 °C, geometric mean (SEM, n)): 8.26
- GLP-1R Internalization Top (GLP-1R [3]; efficacy (% Top), percent internalization compared to maximal GLP-1, (SEM)): 90.6 (3.0) %
- pEC50 (GLP-1R [4]; NanoBRET, geometric mean (SEM, n), read-out: GLP-1R β-Arr1 Recruitment EC50): 8.40
- GLP-1R β-Arr1 Recruitment Top (GLP-1R [4]; efficacy (% Top), relative efficacy to GLP-1, (SEM)): 25.9 (2.6) %
- pKd ([5]; GLP-1R SPR KD, equilibrium affinity, immobilized GLP-1R ectodomain, Biacore T200, HBS-EP pH 7.6, (SEM, n)): 6.95
- koff ([5]; read-out: GLP-1R ECD kinetic constant Koff): 0.0254 s⁻¹
- pEC50 (GLP-1R [6]; cAMP accumulation, HEK293 cells expressing GLP-1R, albumin-free, geometric mean (SEM, n)): 8.98
- GLP-1R Low Density cAMP Top (GLP-1R [6]; efficacy (% Top), normalized to GLP-1(7-36), (SEM)): 105 (2) %

From paper PMC9060465 (Proceedings of the National Academy of Sciences of the …, 2022)
